Counter-ions that a name gives are not always drawn.
Legend:
Phytophthora infestans = assay: whole plant or invertebrate; format: in vivo; details: in Solanum tuberosum, 120 h, read-out: P. infestans % inhibition
Rhodococcus sp. = assay: Bacterial liquid culture growth curves (OD600), Rhodococcus sp.; details: 18.5 h, read-out: Absolute growth rate relative to mock control, Rhodococcus sp.
[1] = tested on: Pseudomonas syringae pv. tomato (Pto) DC3000; assay: Bacterial liquid culture growth curves (OD600), Pto DC3000; details: 18.5 h, read-out: Absolute growth rate relative to mock control, Pto DC3000
P. infestans = assay: whole plant or invertebrate; format: in vivo; details: Phytophthora infestans, in Solanum tuberosum, read-out: P. infestans % inhibition

SMILES | inhibition at 100 µM (P. infestans) [%] | also measured
Oc1ccc(-c2cc(-c3cccc(C(F)(F)F)c3)[nH]n2)cc1O [Compound 12, 3-(3,4-Dihydroxyphenyl)-5-[3-(trifluoromethyl)phenyl]-1H-pyrazole] |  | inhibition at 100 µM (Phytophthora infestans): 76%; activity at 100 µM (Rhodococcus sp.): -1%; activity at 100 µM [1]: 104%
CN(C)c1cccc(-c2cc(-c3ccc4c(c3)OCO4)n[nH]2)c1 [Compound 14, 3-[3-(1,3-benzodioxol-5-yl)-1H-pyrazol-5-yl]-N,N-dimethylaniline] |  | inhibition at 100 µM (Phytophthora infestans): 71%; activity at 100 µM (Rhodococcus sp.): 11%; activity at 100 µM [1]: 100%
Ic1ccc(-c2cc(-c3ccc4c(c3)OCO4)n[nH]2)cc1 [Compound 15, 3-(1,3-Benzodioxol-5-yl)-5-(4-iodophenyl)-1H-pyrazole] |  | inhibition at 100 µM (Phytophthora infestans): 56%
c1ccc(-c2cc(-c3ccc4c(c3)OCO4)no2)cc1 [Compound 17, 3-(1,3-Benzodioxol-5-yl)-5-phenylisoxazole] |  | inhibition at 100 µM (Phytophthora infestans): 13%
COc1ccc(-c2cc(-c3cccc(F)c3)on2)cc1OC [Compound 20, 3-(3,4-Dimethoxyphenyl)-5-(3-fluorophenyl)isoxazole] |  | inhibition at 100 µM (Phytophthora infestans): 21%
Oc1ccc(-c2cc(-c3cccc(F)c3)on2)cc1O [Compound 21, 3-(3,4-Dihydroxyphenyl)-5-(3-fluorophenyl)isoxazole] |  | inhibition at 100 µM (Phytophthora infestans): 70%; activity at 100 µM (Rhodococcus sp.): 2%; activity at 100 µM [1]: 93%
Oc1ccc(-c2noc(-c3cccc(F)c3)n2)cc1O [Compound 25, 3-(3,4-Dihydroxyphenyl)-5-(3-fluorophenyl)-1,2,4-oxadiazole] |  | inhibition at 100 µM (Phytophthora infestans): 79%; activity at 100 µM (Rhodococcus sp.): 1%; activity at 100 µM [1]: 105%
Oc1ccc(-c2cc(-c3ccc(O)c(O)c3)[nH]n2)cc1O [Compound 27, 3,5-Bis(3,4-Dihydroxyphenyl)-1H-pyrazole hydrobromide] |  | inhibition at 100 µM (Phytophthora infestans): 62%; activity at 100 µM (Rhodococcus sp.): 98%; activity at 100 µM [1]: 77%
COc1ccc(-c2c[nH]c(-c3ccc(OC)c(OC)c3)n2)cc1OC [Compound 30, 2,4-Bis(3,4-dimethoxyphenyl)-1H-imidazole] |  | inhibition at 100 µM (Phytophthora infestans): 46%; activity at 100 µM (Rhodococcus sp.): 35%; activity at 100 µM [1]: 109%
COc1ccc(-c2cc(-c3ccc(Cl)cc3)n[nH]2)cc1 [Compound 31, 3-(4-Chlorophenyl)-5-(4-methoxyphenyl)-1H-pyrazole] |  | inhibition at 100 µM (Phytophthora infestans): 77%
CNc1ccc(-c2cc(-c3cccc(Br)c3)[nH]n2)cc1 [Compound 42, 5-(3-Bromophenyl)-3-[4-(methylamino)phenyl]-1H-pyrazole] |  | activity at 100 µM (Rhodococcus sp.): 72%; activity at 100 µM [1]: 73%
Fc1cc(F)cc(-c2cc(-c3ccc4c(c3)OCO4)n[nH]2)c1 [Compound 104, 3-(1,3-Benzodioxol-5-yl)-5-(3,5-difluorophenyl)-1H-pyrazole] |  | activity at 100 µM (Rhodococcus sp.): 51%; activity at 100 µM [1]: 101%
COCCOC(=O)Nc1cccc(-c2nc(-c3ccc(OC(F)(F)F)cc3)c[nH]2)c1 [Compound 137, 2-Methoxyethyl (3-{4-[4-(trifluoromethoxy)phenyl]-1H-imidazol-2-yl}phenyl) carbamate] | 77 | 
CCc1ccc(-c2c[nH]c(-c3cccc(C(=O)N4CCN(C)CC4)c3)n2)cc1 [Compound 138, (4-Methylpiperazin-1-yl){3-[4-(4-ethylphenyl)-1H-imidazol-2-yl]phenyl}methanone] | 68 | 
COCCOC(=O)Nc1cccc(-c2nc(-c3ccc(OC)cc3)n[nH]2)c1 [Compound 139, 2-Methoxyethyl {3-[3-(4-methoxyphenyl)-1H-1,2,4-triazol-5-yl]phenyl}carbamate] | 48 | 
COc1ccc(-c2n[nH]c(-c3cccc(NC(=O)[C@H](C)N)c3)n2)cc1 [Compound 140, (2S)-2-Amino-N-{3-[3-(4-methoxyphenyl)-1H-1,2,4-triazol-5-yl]phenyl}propenamide hydrochloride] | 39 | 
N[C@@H](Cc1ccccc1)C(=O)Nc1cccc(-c2nc(-c3ccc(OC(F)(F)F)cc3)c[nH]2)c1 [Compound 141, (2S)-2-Amino-N-{3-[4-(4-trifluoromethoxyphenyl)-1H-imidazol-2-yl]phenyl}-3-phenylpropanamide hydrochloride] | 93 | 
O=C(O)c1ccc(-c2cc(-c3ccc(F)cc3)[nH]n2)cc1 [Compound 142, 4-[5-(4-Fluorophenyl)-1H-pyrazol-3-yl]benzoic acid] | 46 | 
COc1ccc(-c2c[nH]c(-c3cccc(N4CCOCC4)c3)n2)cc1OC [Compound 144, 4-{3-[4-(3,4-Dimethoxyphenyl)-1H-imidazol-2-yl]phenyl}morpholine] | 81 | 
CC(C)[C@H](N)C(=O)Nc1cccc(-c2cc(-c3cccc(OC(F)(F)F)c3)[nH]n2)c1 [Compound 145, (2S)-2-Amino-N-{3-[5-(3-trifluoromethoxyphenyl)-1H-pyrazol-3-yllphenyl}-3-methylbutanamide hydrochloride] | 97 | 
CN1CCN(c2ccc(-c3cc(-c4cc(F)cc(F)c4)[nH]n3)cc2)CC1 [Compound 146, 1-{4-[5-(3,5-Difluorophenyl)-1H-pyrazol-3-yl]phenyl}-4-methylpiperazine] | 95 | 

SMILES | inhibition at 100 µM (P. infestans) [%] | also measured
CN1CCN(C(=O)c2cccc(-c3cc(-c4ccc(C(F)(F)F)cc4)[nH]n3)c2)CC1 [Compound 147, {3-[5-(4-Trifluoromethylphenyl)-1H-pyrazol-3-yl]phenyl}(4-methylpiperazin-1-yl)methanone] | 81 | 
COCCNC(=O)Nc1cccc(-c2cc(-c3cccc(OC(F)(F)F)c3)[nH]n2)c1 [Compound 148, 1-{3-[5-(3-Trifluoromethoxyphenyl)-1H-pyrazol-3-yl]phenyl}-3-(2-methoxyethyl)urea] | 6 | 
CN1CCN(c2ccc(-c3cc(-c4cc(F)ccc4F)[nH]n3)cc2)CC1 [Compound 149, 1-{4-[5-(2,5-Difluorophenyl)-1H-pyrazol-3-yl]phenyl}-4-methylpiperazine] | 8 | 
Cc1cccc(-c2nc(-c3cccc(F)c3)c[nH]2)c1 [Compound 150, 4-(3-Fluorophenyl)-2-(3-methylphenyl)-1H-imidazole] | 91 | 
Fc1cccc(-c2c[nH]c(-c3cccc(C(F)(F)F)c3)n2)c1 [Compound 151, 4-(3-Fluorophenyl)-2-[3-(trifluoromethyl)phenyl]-1H-imidazole] | 85 | 
CCc1ccc(-c2c[nH]c(-c3ccc(NS(C)(=O)=O)cc3)n2)cc1 [Compound 152] | 91 | 
CCc1ccc(-c2c[nH]c(-c3ccc(NC(=O)[C@@H]4CCCN4)cc3)n2)cc1 [Compound 153, (2S)-N-{4-[4-(4-Ethylphenyl)-1H-imidazol-2-yl]phenyl}pyrrolidine-2-carboxamide dihydrochloride] | 95 | 
CCc1ccc(-c2c[nH]c(-c3ccc(NC(=O)OCCOC)cc3)n2)cc1 [Compound 154, 2-Methoxyethyl {4-[4-(4-ethylphenyl)-1H-imidazol-2-yl]phenyl}carbamate] | 89 | 
CCc1ccc(-c2c[nH]c(-c3ccc(NC(C)=O)cc3)n2)cc1 [Compound 155, N-{4-[4-(4-Ethylphenyl)-1H-imidazol-2-yl]phenyl}acetamide] | 16 | 
Cc1ccc(-c2n[nH]c(-c3cccc(N4CCCC4)c3)n2)cc1C [Compound 156, 3-(3,4-Dimethylphenyl)-5-[3-(pyrrolidin-1-yl)phenyl]-1H-1,2,4-triazole] | 25 | 
Cc1ccc(-c2n[nH]c(-c3cccc(NC(=O)OC(C)C)c3)n2)cc1 [Compound 157, Propan-2-yl {3-[3-(4-methylphenyl)-1H-1,2,4-triazol-5-yl]phenyl}carbamate] | 17 | 
COc1ccc(-c2nc(-c3cccc(Cl)c3)n[nH]2)cc1OC [Compound 158, 3-(3-Chlorophenyl)-5-(3,4-dimethoxyphenyl)-1H-1,2,4-triazole] | 59 | 
Cc1ccc(-c2n[nH]c(-c3cccc(NC(=O)[C@@H](N)CC(C)C)c3)n2)cc1 [Compound 159, (2S)-2-Amino-N-{3-[3-(4-methylphenyl)-1H-1,2,4-triazol-5-yl]phenyl}-4-methylpentanamide] | 97 | 
COc1ccc(-c2nc(-c3ccc(C)c(C)c3)n[nH]2)cc1OC [Compound 160, 5-(3,4-Dimethoxyphenyl)-3-(3,4-dimethylphenyl)-1H-1,2,4-triazole] | 76 | 
FC(F)(F)c1cccc(-c2nc(-c3cccc(Cl)c3)n[nH]2)c1 [Compound 161, 3-(3-Chlorophenyl)-5-[3-(trifluoromethyl)phenyl]-1H-1,2,4-triazole] | 50 | 
Cc1ccc(-c2cc(-c3ccc(NC(=O)[C@@H](N)CCC(N)=O)cc3)[nH]n2)cc1 [Compound 162, (2S)-2-Amino-N1-{4-[3-(4-methylphenyl)-1H-pyrazol-5-yl]phenyl}pentanediamide hydrochloride] | 34 | 
O=C(c1cccc(-c2nc(-c3cccc(F)c3)n[nH]2)c1)N1CCOCC1 [Compound 163, {3-[3-(3-Fluorophenyl)-1H-1,2,4-triazol-5-yl]phenyl}(morpholin-4-yl)methanone] | 22 | 
COc1ccc(-c2n[nH]c(-c3ccc(Br)cc3)n2)cc1 [Compound 164, 5-(4-Bromophenyl)-3-(4-methoxyphenyl)-1H-1,2,4-triazole] | 8 | 
CCOc1cccc(-c2cc(-c3ccc(OC(F)(F)F)cc3)[nH]n2)c1 [Compound 165, 5-(3-Ethoxyphenyl)-3-[4-(trifluoromethoxy)phenyl]-1H-pyrazole] | 2 | 
O=C(O)c1cccc(-c2cc(-c3ccc4c(c3)OCO4)[nH]n2)c1 [Compound 166, 3-[5-(1,3-Benzodioxol-5-yl)-1H-pyrazol-3-yl]benzoic acid] | 6 | 

Reference: patent US20250228242A1 (priority 2021, published 2025)
